Measured values published in patent publication US20180171411A1, “GFRalpha1 AS A BIOMARKER FOR CISPLATIN-INDUCED CHEMORESISTANCE AND METASTASIS” (THE BOARD OF REGENTS OF THE UNIVERSITY OF TEXAS SYSTEM, priority 2015, published 2018).

Tests used:
[1] = system: GFRα1-overexpressing MG-63 clone #4; assay: Colony-forming assay in the presence of cisplatin; type: cell-based, human; settings: cisplatin 20 μM 10 days; 3-MA (10 μM), Baf (100 nM), CQ (30 μg/ml)
Text: FIG. 3. […] Scale bar, 20 μm. […] Scale bar, 20 μm. […] Scale bar, 20 μm.

[2] = system: MG-63/GFRα1 tumors; assay: MG-63/GFRα1 xenograft in BALB/c nude mice; type: in vivo; settings: CQ 60 mg/kg, cisplatin 3 mg/kg, once a week
Experimental: FIG. 5. GFRα1-mediated autophagy promotes chemoresistance and tumor growth in vivo. (a) BALB/c nude mice (n =40) were injected with MG-63 cells that were transfected with either control or GFRα1 expressing vector. Tumor volume was measured every 3 or 4 days. Data are shown as mean±SEM. ** p<0.05. (b) BALB/c nude mice (n=20) were injected with MG-63 cells that were transfected with either control or GFRα1 shRNA. Tumor volume was measured every 3 or 4 days. Data are shown as mean±SEM. ** p<0.05. (c) Tumors that were generated from mice injected with MG-63 cells containing GFRα1 expressing vector were directly injected with PBS, CQ, cisplatin, or cisplatin+CQ. Tumor volume was measured every 4 days. Data are shown as mean±SEM. ** p<0.05 vs PBS, CQ, or cisplatin-treated tumors. (d) Left, representative images of immunofluorescence staining of HMGB1 in a section from tumors generated from mice injected with MG-63 cells containing GFRα1 expressing vector and then treated with PBS, CQ, cisplatin, or cisplatin+CQ. Right, quantitative analysis of percentage of cytoplasmic HMGB1-positive cells in HMGB1-positive tumors. The values are represented as a mean±s.d.m. (n=3). ** denotes p<0.05 by t-test. (e) Left, representative images of TUNEL-positive cells in a section from tumors generated from mice injected with MG-63 cells containing GFRα1 expressing vector and then treated with PBS, CQ, cisplatin, or cisplatin+CQ. Right, quantitative analysis of percentage of TUNEL-positive cells in HMGB1-positive tumors. The values are represented as a mean±s.d.m. (n=3). ** denotes p<0.05 by t-test. (0 Survival rate of mice injected with MG-63 cells containing GFRα1 expressing vector and then treated with either cisplatin or cisplatin+CQ. (g) Representative images of immunohistochemical staining of GFRα1 in a section from human osteosarcoma patient before and after cisplatin treatment. (h) Representative images of immunofluorescence staining of GFRα1 and HMGB1 in a section from human osteosarcoma patient before and after cisplatin treatment.
Tumor formation in nude mice. The mice used in this study were 6-week-old female BALB/c nude mice purchased from Orient Bio Inc. (Seongnam, Korea). […] The tumor size was measured with a caliper every 3 or 4 days. […] The tumor size was measured with a caliper every 4 days. […] were calculated from caliper measurements of tumor dimensions in mm using the formula for a prolate ellipsoid: (L×W^2)/2 where L is the longer of the two-measurements.
Statistical analysis. Survival data was analyzed by the Kaplan-Meier and log-rank test with GraphPad Prism v5.04 (GraphPad Software, La Jolla Calif.). Plating efficiency (PE, %)=(Number of colonies counted/Number of cells plated)×100. […] All values are expressed as the mean±standard deviation (SD). […]

[3] = system: Src/AMPK signaling in MG-63 cells; assay: Immunoblot of Src/AMPK/mTOR signaling; type: cell-based, human; settings: then cisplatin 20 μM 24 hr; for LC3-II expression: inhibitor
Experimental: FIG. 4. GFRα1 regulates autophagy by Src/AMPK signaling in osteosarcoma cells. (a-b) Immunoblot analysis of osteosarcoma cell lysates with antibodies specific for GFRα1, p-Src, Src, p-AMPK, AMPK, p-mTOR, mTOR, p-p70 S6Kinase, Beclin 1, HMGB1, LC3, and β-actin. (a) MG-63 and cells were treated with cisplatin (20 μM) for 24 hr. (b) Control and GFRα1-deficient MG-63 cells were treated with cisplatin (20 μM) for 24 hr. (c-e) Immunoblot analysis of osteosarcoma cell lysates with antibodies specific for GFRα1, p-Src, Src, p-AMPK, AMPK, LC3, and β-actin. (c) Control and Src-deficient MG-63 cells were treated with cisplatin (20 μM) for 24 hr. (d) MG-63 cells were cultured in the presence or absence of PP1 (5 μM) and then treated with cisplatin (20 μM) for 24 hr. (e) MG-63 cells were cultured in the presence or absence of Compound C and then treated with cisplatin (20 μM) for 24 hr. (f) Cell viability of MG-63 cells after cisplatin treatment in the presence of PP1. MG-63 cells were cultured with DMSO or PP1 (2, 5 μM) and then treated with cisplatin (20 μM) for 24 hr. Cell viability was measured using the WST-1 assay. The values are represented as a mean±s.d.m. (n=3). ** denotes p<0.05 by t-test. (g) Cell viability of MG-63 cells after cisplatin treatment in the presence of Compound C. MG-63 cells were cultured with DMSO or Compound C (5, 10 μM) and then treated with cisplatin (20 μM) for 24 hr. Cell viability was measured using the WST-1 assay. The values are represented as a mean±s.d.m. (n=3). ** denotes p<0.05 by t-test.
(§1) Immunoblotting. Cells were washed with PBS and lysed in RIPA Buffer (Pierce, Rockford, Ill.). The protein content was determined using a dye-binding microassay (Bio-Rad, Hercules, Calif.), and 10-50 μg protein per lane was electrophoresed on 4-12% SDS polyacrylamide gels. Proteins were blotted onto Hybond ECL membranes (Amersham Pharmacia Biotech, Piscataway, N.J.). Two protein ladders were used for molecular weight determination (GenDEPOT, Barker, Tex.). The blotted proteins were detected using an enhanced chemiluminescence detection system (iNtRON, Seoul, Korea). Data were quantified and analyzed with Image-J software.

[4] = system: GFRα1 expression in MG-63 and U-2 OS cells; assay: Immunoblot of GFRα1 expression after chemotherapeutic agents; type: cell-based, human; settings: doxorubicin 5 μM, cisplatin 20 μM, methotrexate 1 mM, 24 hr
Experimental: FIG. 1. Cisplatin induces GFRα1 expression in osteosarcoma cells. (a-c) Immunoblot analysis of osteosarcoma cell lysates with antibodies specific for GFRα1 and β-actin. (a) MG-63 and U-2 OS cells were treated with doxorubicin (5 μM), cisplatin (20 μM), or methotrexate (1 mM) for 24 hr. Immunoblot analysis of GFRα1 (left) and quantification of GFRα1 expression (right) after treatment of chemotherapeutic agents. (b) MG-63 and U-2 OS cells were treated with different concentrations of cisplatin for 24 hr. (c) MG-63 and U-2 OS cells were treated with cisplatin (20 μM) and collected at the indicated time. (d and e) Quantitative real-time PCR of GFRα1 mRNA expression after cisplatin treatment. Representative images (top) and quantitative analysis (bottom) of GFRα1 mRNA expression. The values are presented as a mean±s.d.m (n=3). ** denotes p<0.05 by t-test. (d) MG-63 and U-2 OS cells were treated with different concentrations of cisplatin for 24 hr. (e) MG-63 and U-2 OS cells were treated with cisplatin (20 μM) and collected at the indicated time.
as §1

[5] = system: GFRα1-deficient MG-63 and U-2 OS cells; assay: WST-1 cell viability of GFRα1-deficient (siRNA) osteosarcoma cells; type: cell-based, human; settings: GFRα1 siRNA 48 h, then agent 24 h
Experimental: FIG. 6. Cell viability of GFRα1-deficient osteosarcoma cells after treatment of chemotherapeutic agents. MG-63 and U-2 OS cells were transfected with either control siRNA or GFRα1 siRNA for 48 h and then treated with different concentrations of doxorubicin, cisplatin, or methotrexate for 24 h. Cell viability was measured using the WST-1 assay. The values are represented as a mean±s.d.m. (n=3). ** denotes P<0.05 by t-test. (a) MG-63 cells. (b) U-2 OS cells.
Small interfering RNA (siRNA)-based Experiments. Human GFRα1 siRNA, Beclin 1 siRNA, HMGB1 siRNA, AMPK siRNA, c-Src siRNA, NFκB p50 siRNA, APE siRNA and Negative (control) siRNA were purchased from Santa Cruz Biotechnology. Cell lines were transiently transfected with siRNA duplexes using Lipofectamine® RNAiMAX (Life Technologies) according to manufacturer's instructions.
Cell viability assays. WST-1 cell viability assay reagent was purchased from Roche. Equal numbers of cells were seeded in triplicate wells in 48-well plates and maintained in growth medium containing 10% FBS). Cells were cultured with PBS, GDNF (50 ng/mL), GDNF (50 ng/ml)+cisplatin (20 μM), or cisplatin (20 μM) in the presence of serum for 24 hr. Cells were also preincubated with inhibitors (3-MA, PP1, Compound C, Baf and CQ) for 1 hr before stimulating with PBS, GDNF, GDNF+cisplatin, or cisplatin. WST-1 reagent was then treated to the cells at the indicated times and incubated for 2 hr at 37° C. Cell viability was determined by measuring the absorbance after adding WST-1. The spectrophotometric absorbance of the samples was measured using an Ultra Multifunctional Microplate Reader (Tecan, Durham, N.C.) at 450 nm. Experiments were done at least in triplicate using separate cultures.

CCN(CC)CCCC(C)Nc1ccnc2cc(Cl)ccc12 (centres unmarked) [CQ, chloroquine]
number of colonies [1]: effectively reduced | tumor progression [2]: allowed the tumors to survive | tumor volume compared to PBS-treated mice [2]: decreased

Cc1ccc(-c2nn(C(C)(C)C)c3ncnc(N)c23)cc1 [PP1]
AMPK phosphoryation ([3]; PP1 5 μM): decreased | LC3-II expression [3]: decreased

c1cc(-c2cnn3cc(-c4ccc(OCCN5CCCCC5)cc4)cnc23)ccn1 [compound C]
Src phosphorylation ([3]; Compound C): no effect | LC3-II expression [3]: decreased

COc1cccc2c1C(=O)c1c(O)c3c(c(O)c1C2=O)C[C@@](O)(C(=O)CO)C[C@@H]3O[C@H]1C[C@H](N)[C@H](O)[C@H](C)O1 [doxorubicin]
level of GFRα1 expression [4]: no or little effect | cell proliferation of GFRα1-deficient cells compared to control cells [5]: little or no effect

CN(Cc1cnc2nc(N)nc(N)c2n1)c1ccc(C(=O)N[C@@H](CCC(=O)O)C(=O)O)cc1 [methotrexate]
level of GFRα1 expression [4]: no or little effect | cell proliferation of GFRα1-deficient cells compared to control cells [5]: little or no effect
